Entries after “also recorded” stand apart in the source; their conditions may differ.
Tested on: male CD/Crl:CD(SD) rats
Experiment: Acute toxicity study, single peroral application, 14‐day observation
Format: in vivo
Conditions: for Ataxia / Chromodacryorrhea / Dyspnoea / Inhibition of body weight gain / Mean body weight gain, After 7 d / Mean body weight, After 7 d / Mortality within 6 h / Mortality within 24 h / Necropsy findings / Piloerection / Ptosis / Reduced motility / Reduced muscle tone / Mean body weight gain, End / Mean body weight, End / Mean body weight, Start / Mortality within 7 d / Mortality within 14 d: p.o., males, n = 5; for Mean body weight gain, End / Mean body weight, End: 14‐day observation; for Mean body weight, Start: before administration; for Premature deaths in the acute toxicity study: rat, in vivo
Experimental: In total, 90 male CD®/Crl:CD(SD) rats from Charles River Laboratories, Deutschland GmbH, were used after randomization. Five rats were selected for each concentration of the corresponding experimental substance. […] In addition, a control group was formed with five rats receiving only the HPMC gel.
Feeding was stopped approximately 16 h before the start of test substance application, whereas tap water continued to be available ad libitum. Granulated structural wood was used as bedding material in the cages; the material was changed and the cages were cleaned twice a week. […] The rooms were illuminated (approximately 150 lux from a ceiling height of approximately 1.50 m) and darkened for 12 h in turns.
Each animal was kept under observation, so that any behavior deviating from the norm could be systematically recorded. Observations were made before the peroral application of the respective active substance, immediately after, and 5, 15, 30, and 60 min and 3, 6, and 24 h after the start of application. […] We focused on the changes in the skin and fur, the eyes and mucous membranes, respiration, circulation, the autonomous and central nervous systems, somatomotor activity, and behavior patterns. They were also observed for possible tremors, convulsions, salivation, diarrhea, lethargy, sleep, and coma. Mortality checks were performed at least once a day to minimize the loss of animals during the study. The time of death was recorded as accurately as possible. Individual body weights were recorded before the administration of experimental substances and, subsequently, at weekly intervals, until the end of the study and at death. Weight changes were calculated when survival exceeded 1 day.
At the end of the experiments, all surviving animals were sacrificed, dissected, and examined macroscopically. All notable pathological changes were recorded. A microscopic examination of all organs showing obvious lesions was performed on animals that survived for 24 h or longer. Autopsy and macroscopic inspection of prematurely deceased animals were performed as soon as possible after death.

## OCCCCCCCCCCCCn1ccnc1 [I‐ol, 12‐imidazolyl‐1‐dodecanol]
10 mg/kg b.w.
  Ataxia: None
  Chromodacryorrhea: None
  Dyspnoea: None
  Inhibition of body weight gain: None
  Mean body weight gain, After 7 d: +17.0%
  Mean body weight, After 7 d: 259.2 g
  Mortality within 6 h: 0
  Mortality within 24 h: 0
  Necropsy findings: None
  Piloerection: None
  Ptosis: None
  Reduced motility: None
  Reduced muscle tone: None
  Mean body weight gain, End: +30.0%
  Mean body weight, End: 288.0 g
  Mean body weight, Start: 221.6 g
10 mg/kg bw
  Mortality within 7 d: 0
  Mortality within 14 d: 0
50 mg/kg b.w.
  Ataxia: None
  Chromodacryorrhea: None
  Dyspnoea: None
  Inhibition of body weight gain: None
  Mean body weight gain, After 7 d: +22.2%
  Mean body weight, After 7 d: 278.4 g
  Mortality within 6 h: 0
  Mortality within 24 h: 0
  Necropsy findings: None
  Piloerection: None
  Ptosis: None
  Reduced motility: None
  Reduced muscle tone: None
  Mean body weight gain, End: +36.3%
  Mean body weight, End: 310.4 g
  Mean body weight, Start: 227.8 g
50 mg/kg bw
  Mortality within 7 d: 0
  Mortality within 14 d: 0
100 mg/kg b.w.
  Ataxia: None
  Chromodacryorrhea: None
  Dyspnoea: None
  Inhibition of body weight gain: None
  Mean body weight gain, After 7 d: +18.5%
  Mean body weight, After 7 d: 272.6 g
  Mortality within 6 h: 0
  Mortality within 24 h: 0
  Necropsy findings: None
  Piloerection: None
  Ptosis: None
  Reduced motility: None
  Reduced muscle tone: None
  Mean body weight gain, End: +33.0%
  Mean body weight, End: 305.8 g
  Mean body weight, Start: 230.0 g
100 mg/kg bw
  Mortality within 7 d: 0
  Mortality within 14 d: 0
250 mg/kg b.w.
  Ataxia: None
  Chromodacryorrhea: None
  Dyspnoea: None
  Inhibition of body weight gain: None
  Mean body weight gain, After 7 d: +19.6%
  Mean body weight, After 7 d: 266.8 g
  Mortality within 6 h: 0
  Mortality within 24 h: 0
  Necropsy findings: None
  Piloerection: None
  Ptosis: None
  Reduced motility: None
  Reduced muscle tone: None
  Mean body weight gain, End: +34.2%
  Mean body weight, End: 299.2 g
  Mean body weight, Start: 223.0 g
250 mg/kg bw
  Toxic signs: None
  Mortality within 7 d: 0
  Mortality within 14 d: 0
500 mg/kg b.w.
  Ataxia: None
  Chromodacryorrhea: None +
  Dyspnoea: None
  Inhibition of body weight gain: None
  Mean body weight gain, After 7 d: +29.0%
  Mean body weight, After 7 d: 294.2 g
  Mortality within 6 h: 0
  Mortality within 24 h: 0
  Necropsy findings: None
  Ptosis: None
  Reduced motility: None
  Reduced muscle tone: None
  Mean body weight gain, End: +46.6%
  Mean body weight, End: 334.2 g
  Mean body weight, Start: 228.0 g
500 mg/kg bw
  Toxic signs: None
  Mortality within 7 d: 0
  Mortality within 14 d: 0
1000 mg/kg b.w.
  Chromodacryorrhea: None
  Inhibition of body weight gain: None
  Mean body weight gain, After 7 d: +22.4%
  Mean body weight, After 7 d: 271.2 g
  Mortality within 6 h: 0
  Mortality within 24 h: 0
  Necropsy findings: None
  Piloerection: None
  Ptosis: None
  Mean body weight gain, End: +36.6%
  Mean body weight, End: 302.6 g
  Mean body weight, Start: 221.6 g
1000 mg/kg bw
  Toxic signs: reduced motility was observed, with reduced muscle tone, ataxia, and dyspnea; also recorded: Reduced motility and muscle tone, ataxia, dyspnoea
  Mortality within 7 d: 0
  Mortality within 14 d: 0
All doses
  Macroscopic necropsy findings: None
male, CD/Crl:CD(SD), 14 days
  Premature deaths in the acute toxicity study: None of the 30 rats died
  Premature deaths in the acute toxicity study: did not lead to any death
rats, single p.o. dose
  Dose up to which no acute toxicity was shown: 1000 mg/kg b.w.
  Lowest lethal dose: >1000 mg/kg bw
  No Observed Adverse Effect Level: 500 mg/kg bw
rats, single p.o. dose, 14 days
  LD50(14 d): >1000 mg/kg bw
